In US10710968B2 (Hadasit Medical Research Services and Development Ltd., priority 2016, dated 2020):

Key:
[1] = test system: NCI-H3255 cells (EGFR L858R point mutation); assay: Cell growth inhibition, methylene blue assay, NCI-H3255; assay type: cell-based, human; settings: NCI-H3255, Activating (L858R point mutation), 72 hours, mean±SD
Procedure: (§1) NCI-H1975 and HCC827 were obtained from the ATCC. QG56 cells were obtained from Prof. Alexander Levitzki's lab, The Silberman Institute of Life Sciences, the Hebrew University, Jerusalem. […] All media were supplemented with fetal bovine serum (FBS, (10%)) and antibiotics (penicillin 10^4 units/L, streptomycin 10 mg/L) (BI, Israel).
(§2) Four human NSCLC cell lines were selected: QG56, HCC827, NCI-H3255 and NCI-H1975. These cell lines harbor the prevailing EGFR variants identified in NSCLC patients, including the wild-type receptor (QG56 cells) and the two most common activating mutations in the TK domain of the receptor: an exon 19 deletion (ΔE746-A750) (HCC827 cells) and the L858R point mutation in exon 21 (NCI-H3255). NCI-H1975 cells were also selected, since on top of the activating L858R point mutation, these cells harbor the secondary T790M mutation in exon 20, which confers resistance to TKI-therapy.
(§3) The median inhibitory concentration (IC50) of the tested compound for cell growth of each cell line was then calculated using GraphPad Prism 5.0 software. Results are presented as mean±SD.

[2] = test system: NCI-H1975 cells (EGFR L858R + T790M); assay: Cell growth inhibition, methylene blue assay, NCI-H1975; assay type: cell-based, human; settings: NCI-H1975, Double (L858R + T790M), 72 hours, mean±SD
Procedure: as §1, §2, §3

QG56 cells (wt EGFR) = assay: Cell growth inhibition, methylene blue assay, QG56; assay type: cell-based, human; settings: QG56, None (wt EGFR), 72 hours, mean±SD
Procedure: as §1, §2, §3

[3] = Stability of the final formulation in solution (radio-TLC and HPLC); assay type: physicochemical; settings: final formulation (ethanol/isotonic saline)
Procedure: In brief, a solution of ethylene 1,2-(bis) tosylate (11-13 mg) dissolved in anhydrous MeCN ([…]) was added to the dried [^18F]fluoride. The reaction is heated to 120° C. while stirring for 10 minutes, and the reaction mixture was thereafter cooled to 50° C. The ^18F-fluoroethyltosylate was then further diluted with 1 mL MeCN and transferred to a second reactor that was pre-stirred and heated under argon stream for 5 minutes with 9-11 mg of desmethylerlotinib dissolved in 0.6 mL of DMF and 6-8 mg of NaH. […]
The radiochemical purity was determined using analytical HPLC equipped with C18 analytical Luna column (5 μm, 4.6 mm>250 mm, Luna, phenomenex, Torrance, Calif., USA), with a variable wavelength UV detector operated at λ=254 nm, and a radioactivity detector with NaI crystals, and was routinely greater than 98%. […] Solvent residues were analyzed by GC, using a 1 μL injection of the final product, and compared to a standard solution containing 0.04% acetonitrile and 0.5% acetone. […]

QG56 tumor = assay: PET/CT scans of QG56 tumor-bearing mice; assay type: in vivo; settings: QG56 tumors, 60 minutes after i.v. injection
Procedure: (§4) Dynamic (1 hour) PET scans are performed using Inveon™ MM PET-CT small animal-dedicated scanner (Siemens Medical Solutions, USA). […] Using image analysis tools, volume of interests (VOIs) are drawn for selected organs based on the PET and CT images, and the kinetics of radioactivity distribution in vivo (time-activity curves, (TACs)) is determined for these organs, and primarily for the NSCLC xenografts. The standardized uptake values (SUVs) of each radiolabeled compound in tumors are calculated and compared between the different tumors.
(§5) In additional PET/CT studies, five QG56 (erlotinib-insensitive) and five HCC827 (erlotinib-sensitive) tumor-bearing mice were scanned for 60 minutes following i.v. injection of [^18F]6-O-FEE (7.14±0.7 Mbq).

HCC827 tumor = assay: PET/CT scans of HCC827 tumor-bearing mice; assay type: in vivo
Procedure: as §4, §5

SMILES	IC50 [1] [µM]	IC50 [2] [µM]	IC50 (QG56 cells (wt EGFR)) [µM]	stability in solution [3]	tumor SUV (QG56 tumor)	higher uptake in HCC827 tumors compared to QG56 tumors (HCC827 tumor; 60 minutes after i.v. injection, mice, p=0.0072) [fold]	reduction of tumor SUV by erlotinib in excess (HCC827 tumor; HCC827 tumor-bearing mice, erlotinib 6.1±0.3 mg/kg 10 minutes prior, p=0.018)	tumor SUV (HCC827 tumor; HCC827 tumor-bearing mice, erlotinib in excess (6.1±0.3 mg/kg) 10 minutes prior to injection)	tumor SUV (HCC827 tumor; HCC827 tumor-bearing mice, without erlotinib pre-administration (blocking comparison))	tumor SUV (HCC827 tumor; HCC827 tumors, 60 minutes after i.v. injection, mice)	higher uptake in HCC827 tumor compared to NCI-H1975 tumor (HCC827 tumor; preliminary PET/CT study, i.v. injection, 60 minutes scan, mice)
C#Cc1cccc(Nc2ncnc3cc(OCCOC)c(OCCF)cc23)c1 [6-O-FEE, 6-O-fluoroethylerlotinib]	0.033 ± 0.04	3.6 ± 1	14.4 ± 5								
C#Cc1cccc(Nc2ncnc3cc(OCCOC)c(OCC[18F])cc23)c1 [[^18F]6-O-FEE, [^18F]6-fluoroethylerlotinib]				remained stable in solution for over four hours	0.28	2.5	about 40%	0.414	0.704	0.70	2.5-3 fold
